This is an account of results in patent publication US8541587B2, “Lysophosphatidic acid receptor antagonists” (Amira Pharmaceuticals, Inc., priority 2011, dated 2013).

In test [1] the test system is A2058 human melanoma cells. Briefly: LPA1 chemotaxis assay. The test is classed as cell-based. The note with it: 100 nM LPA, read-out: IC50, inhibition of LPA-driven chemotaxis. How it is done: Chemotaxis of the A2058 human melanoma cells was measured using the Neuroprobe ChemoTx® System plates (8 μm pore size, 5.7 mm diameter sites). The filter sites were coated with 0.001% fibronectin (Sigma) in 20 mM Hepes, pH 7.4 and allowed to dry. A2058 cells were serum-starved for 24 hours, then harvested with Cell Stripper and resuspended in DMEM containing 0.1% fatty-acid-free bovine serum albumin (BSA) to a concentration of 1×10^6/ml. Cells were mixed with an equal volume of test compound (2×) in DMEM containing 0.1% fatty-acid-free BSA and incubated at 37° C. for 15 minutes. LPA (100 nM in DMEM containing 0.1% fatty-acid-free BSA) or vehicle was added to each well of the lower chamber and 50 μl of the cell suspension/test compound mix was applied to the upper portion of the ChemoTx plate. Plates were incubated at 37° C. for three hours and then the cells removed from the upper portion by rinsing with PBS and scraping. The filter was dried then stained with HEMA 3 Staining System (Fisher Scientific). The absorbance of the filter was read at 590 nm and IC50s were determined using Symyx Assay Explorer.

Another test deals with T1, human LPA2 receptor (Homo sapiens, UniProt Q9HBW0).
T1 construct: The full-length cDNA fragment for human LPA2 was obtained by PCR from the vector; expressed in transfected cells; host or cells: B103 cells (pCDNA3.1, transient, lipofectamine 2000)
T1 sequence (Q9HBW0 whole entry, the tested form may be a part): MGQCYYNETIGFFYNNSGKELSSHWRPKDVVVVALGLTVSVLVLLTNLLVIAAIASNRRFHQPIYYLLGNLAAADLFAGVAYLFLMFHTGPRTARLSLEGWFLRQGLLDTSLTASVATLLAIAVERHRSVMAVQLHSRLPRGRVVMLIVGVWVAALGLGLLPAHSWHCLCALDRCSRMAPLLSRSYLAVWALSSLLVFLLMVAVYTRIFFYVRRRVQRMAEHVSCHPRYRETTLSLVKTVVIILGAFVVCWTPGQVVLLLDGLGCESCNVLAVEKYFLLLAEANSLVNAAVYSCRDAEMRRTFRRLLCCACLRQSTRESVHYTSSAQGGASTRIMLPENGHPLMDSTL
The test can be described thus: LPA2 calcium flux assay (B103 cells transiently expressing human LPA2). The note with it: read-out: LPA2 Binding IC50. It is filed as cell-based. As for the experimental part:
A vector containing the human LPA2 receptor cDNA was obtained from the Missouri S&T cDNA Resource Center (www.cdna.org). The full-length cDNA fragment for human LPA2 was obtained by PCR from the vector. The nucleotide sequence of the cloned human LPA2 was determined by sequencing and confirmed to be identical to the published human LPA2 sequence (NCBI accession number NM_004720). The cDNA was cloned into the pCDNA3.1 expression plasmid and transfected into B103 cells (Invitrogen Corp., USA) by seeding cells in a 96-well poly-D-lysine coated plate at 30,000-35,000 cells per well together with 0.2 μl lipofectamine 2000 and 0.2 μg of the LPA2 expression vector. Cells were cultured overnight in complete media before being assayed for LPA-induced Ca-influx.
(§1) Following an overnight culture with lipofectamine 2000 and the LPA2 expression vector, the B103 cells are washed once with PBS then serum starved for 4 hours. A calcium indicator dye (Calcium 4, Molecular Devices) in assay buffer (HBSS with Ca^2+ and Mg^2+ and containing 20 mM Hepes and 0.3% fatty-acid free human serum albumin) is added to each well and incubation continued for 1 hour at 37° C. 10 μl of test compounds in 2.5% DMSO are added to the cells and incubation continued at room temperature for 30 minutes. Cells are the stimulated by the addition of 10 nM LPA and intracellular Ca^2+ measured using the Flexstation 3 (Molecular Devices). IC50s are determined using Graphpad prism analysis of drug titration curves.

For a further test, the target named is T2, human LPA3 receptor (Homo sapiens, UniProt Q9UBY5).
T2 construct: The full-length cDNA fragment for human LPA3 was obtained by PCR from the vector; expressed in transfected cells
T2 sequence (Q9UBY5 1-353): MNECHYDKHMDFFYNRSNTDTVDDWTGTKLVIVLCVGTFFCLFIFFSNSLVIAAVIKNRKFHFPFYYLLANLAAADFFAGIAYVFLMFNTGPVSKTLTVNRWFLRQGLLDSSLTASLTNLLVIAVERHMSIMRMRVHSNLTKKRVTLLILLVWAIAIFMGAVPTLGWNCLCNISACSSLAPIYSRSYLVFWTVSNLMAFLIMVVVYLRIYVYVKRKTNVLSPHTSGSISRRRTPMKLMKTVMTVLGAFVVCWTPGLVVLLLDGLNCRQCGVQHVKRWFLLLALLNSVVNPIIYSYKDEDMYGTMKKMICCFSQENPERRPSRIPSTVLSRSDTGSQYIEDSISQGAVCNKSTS
The test can be described thus: LPA3 calcium flux assay (CHO cells stably expressing human LPA3). The test is classed as cell-based. The conditions noted are these: read-out: LPA3 Binding IC50. How it is done: A vector containing the human LPA3 receptor cDNA was obtained from the Missouri S&T cDNA Resource Center (www.cdna.org). The full-length cDNA fragment for human LPA3 was obtained by PCR from the vector. The nucleotide sequence of the cloned human LPA3 was determined by sequencing and confirmed to be identical to the published human LPA3 sequence (NCBI accession number NM_012152). The cDNA was cloned into the pCDNA5/FRT expression plasmid and transfected in CHO cells using lipofectamine 2000 (Invitrogen Corp., USA). Clones stably expressing human LPA3 were selected using hygromycin and identified as cells that show Ca-influx in response to LPA.
as §1, with “Human LPA1 or LPA3 expressing CHO cells are seeded at 20,000-45,000 cells per well in a 96-well poly-D-lysine coated plate one or two days before” for “Following an overnight culture with lipofectamine 2000 and”, “assay. Prior to” for “LPA2 expression vector,”, “assay, the” for “B103”, “PBS and” for “PBS”, “cultured in serum-free media overnight. On the day of the assay, a” for “serum starved for 4 hours. A”

The next test deals with T3, human LPA1 receptor (Homo sapiens, UniProt Q92633).
T3 construct: the full-length cDNA for human LPA1 was obtained by PCR of the reverse transcription reaction; expressed in transfected cells
T3 sequence (Q92633 whole entry): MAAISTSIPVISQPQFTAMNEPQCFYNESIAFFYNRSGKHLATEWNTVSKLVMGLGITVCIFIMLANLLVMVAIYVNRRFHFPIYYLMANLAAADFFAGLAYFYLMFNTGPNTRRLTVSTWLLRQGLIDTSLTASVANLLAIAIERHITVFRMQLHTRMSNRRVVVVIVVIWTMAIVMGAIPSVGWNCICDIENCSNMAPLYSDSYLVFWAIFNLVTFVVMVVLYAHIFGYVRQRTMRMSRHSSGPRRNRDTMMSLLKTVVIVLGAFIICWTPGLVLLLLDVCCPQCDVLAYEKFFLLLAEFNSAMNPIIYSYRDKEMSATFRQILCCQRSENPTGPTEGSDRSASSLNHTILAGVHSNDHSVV
The test can be described thus: LPA1 binding (GTPγS binding assay, membranes of CHO cells expressing human LPA1). The test is classed as biochemical. The note with it: 900 nM LPA, [35S]-GTPγS. How it is done:
A 1.1 kb cDNA encoding the human LPA1 receptor was cloned from human lung. Human lung RNA (Clontech Laboratories, Inc. USA) was reverse transcribed using the RETROscript kit (Ambion, Inc.) and the full-length cDNA for human LPA1 was obtained by PCR of the reverse transcription reaction. The nucleotide sequence of the cloned human LPA1 was determined by sequencing and confirmed to be identical to the published human LPA1 sequence (An et al. Biochem. Biophys. Res. Commun. 231:619 (1997). The cDNA was cloned into the pCDNA5/FRT expression plasmid and transfected in CHO cells using lipofectamine 2000 (Invitrogen Corp., USA). Clones stably expressing human LPA1 were selected using hygromycin and identified as cells that show Ca-influx in response to LPA.
The ability of a compound to inhibit binding of GTP to LPA1 is assessed via a membrane GTPγS assay. CHO cells stably expressing the recombinant human LPA1 receptor are resuspended in 10 mM Hepes, 7.4 containing 1 mM DTT, lysed and centrifuged at 75,000×g to pellet the membranes. The membranes are resuspended in 10 mM Hepes, 7.4 containing 1 mM DTT and 10% glycerol. Membranes (˜25 μg per well) are incubated in 96-well plates with 0.1 nM [^35S]-GTPγS, 900 nM LPA, 5 μM GDP, and test compound in Assay Buffer (50 mM Hepes, pH 7.4, 100 mM NaCl, 10 mM MgCl2, 50 μg/ml saponin and 0.2% fatty-acid free human serum albumin) for 30 minutes at 30° C. The reactions are terminated by rapid filtration through Whatman GF/B glass fibre filter plates. The filter plates are washed 3 times with 1 ml cold Wash Buffer (50 mM Hepes, 7.5, 100 mM NaCl and 10 mM MgCl2) and dried. Scintillant is then added to the plates and the radioactivity retained on the filters is determined on a Packard TopCount (Perkin Elmer). Specific binding is determined as total radioactive binding minus non-specific binding in the absence of the ligand (900 nM LPA). IC50s were determined using Graphpad prism analysis of drug titration curves.

Molecules are shown by their SMILES. A value given as a limit tells only on which side of the number the result lay.

For the compound `Cc1ccc(-c2cncc(Nc3c(C)noc3-c3ccc(-c4ccc(C5(C(=O)O)CC5)cc4)cc3)c2)cc1` [Compound 6, 1-(4′-{3-Methyl-4-[5-(4-methyl-phenyl)-pyridin-3-ylamino]-isoxazol-5-yl}-biphenyl-4-yl)-cyclopropanecarboxylic acid], the IC50 in test [1] is < 500 nM; at human LPA2 receptor, < 300 nM; on human LPA3 receptor, < 300 nM; on human LPA1 receptor, < 300 nM.

`Cc1ccccc1-c1cncc(Nc2c(C)noc2-c2ccc(-c3ccc(C4(C(=O)O)CC4)cc3)cc2)c1` [Compound 4, 1-(4′-{3-Methyl-4-[5-(2-methyl-phenyl)-pyridin-3-ylamino]-isoxazol-5-yl}-biphenyl-4-yl)-cyclopropanecarboxylic acid]: the IC50 in test [1] is < 500 nM; on human LPA2 receptor it was < 300 nM; at human LPA3 receptor it was < 300 nM; on human LPA1 receptor it was < 300 nM.

As to `Cc1ccccc1-c1cccc(Nc2c(C)noc2-c2ccc(-c3ccc(C4(C(=O)O)CC4)cc3)cc2)n1` [Compound 1, 1-(4′-{3-Methyl-4-[6-(2-methyl-phenyl)-pyridin-2-ylamino]-isoxazol-5-yl}-biphenyl-4-yl)-cyclopropanecarboxylic acid], the IC50 in test [1] is < 500 nM; on human LPA2 receptor, < 300 nM; on human LPA3 receptor, < 300 nM; on human LPA1 receptor, < 300 nM.

As for `Cc1ccc(-c2cccc(Nc3c(C)noc3-c3ccc(-c4ccc(C5(C(=O)O)CC5)cc4)cc3)n2)cc1` [Compound 3, 1-(4′-{3-Methyl-4-[6-(4-methyl-phenyl)-pyridin-2-ylamino]-isoxazol-5-yl}-biphenyl-4-yl)-cyclopropanecarboxylic acid], the IC50 in test [1] is < 500 nM; at human LPA2 receptor, < 300 nM; at human LPA3 receptor it was < 300 nM; at human LPA1 receptor, < 300 nM.

As for `Cc1cccc(-c2cncc(Nc3c(C)noc3-c3ccc(-c4ccc(C5(C(=O)O)CC5)cc4)cc3)c2)c1` [Compound 5, 1-(4′-{3-Methyl-4-[5-(3-methyl-phenyl)-pyridin-3-ylamino]-isoxazol-5-yl}-biphenyl-4-yl)-cyclopropanecarboxylic acid], the IC50 in test [1] was < 500 nM; at human LPA2 receptor, < 300 nM; at human LPA3 receptor, < 300 nM; at human LPA1 receptor it was < 300 nM.

`Cc1cccc(-c2cncc(Nc3c(C)noc3-c3ccc(-c4ccc(C5(C(=O)NS(C)(=O)=O)CC5)cc4)cc3)c2)c1` [Compound 11, N-(1-{4′-[3-Methyl-4-(5-(3-methyl-phenyl)-pyridin-3-ylamino)-isoxazol-5-yl]-biphenyl-4-yl}-cyclopropanecarbonyl)-methanesulfonamide]: the IC50 on human LPA2 receptor, on human LPA3 receptor and on human LPA1 receptor was < 300 nM throughout.

For the compound `Cc1cccc(-c2cccc(Nc3c(C)noc3-c3ccc(-c4ccc(C5(C(=O)NS(C)(=O)=O)CC5)cc4)cc3)n2)c1` [Compound 8, N-(1-{4′-[3-Methyl-4-(6-(3-methyl-phenyl)-pyridin-2-ylamino)-isoxazol-5-yl]-biphenyl-4-yl}-cyclopropanecarbonyl)-methanesulfonamide], the IC50 on human LPA2 receptor, at human LPA3 receptor and on human LPA1 receptor was < 300 nM in each case.

Take `Cc1cccc(-c2cccc(Nc3c(C)noc3-c3ccc(-c4ccc(C5(C(=O)O)CC5)cc4)cc3)n2)c1` [Compound 2, 1-(4′-{3-Methyl-4-[6-(3-methyl-phenyl)-pyridin-2-ylamino]-isoxazol-5-yl}-biphenyl-4-yl)-cyclopropanecarboxylic acid]: the IC50 in test [1] is < 500 nM; on human LPA2 receptor it was < 300 nM; at human LPA3 receptor, < 300 nM; on human LPA1 receptor, < 300 nM.
